Experimental data from patent US10765754B2, “Compositions and methods related to inhibition of respiratory syncytial virus entry” (priority 2015, dated 2020).
Starred links: 1 amine or outer side, 2 acyl side, 3 side chain; linkers in the order of their positions; H or OH if unused. Positions of bridges follow the written chain, without caps; N, C: chain ends. Non-standard residues stand in square brackets, D forms with d. Residues, ends and D or L forms follow the SMILES beside them. Chains are numbered I, II in the order given. No end group written: not given here. X1 = NCCOCCOCCOCCOCCOCCOCCOCCOCCOCCOCCOCCOCCOCCOCCOCCOCCOCCOCCOCCOCCOCCOCCOCCOCCOCCOCCOCCOCCC(=O)NC(CCC(=O)[*:1])(CCC(=O)[*:2])CCC(=O)[*:3]; X2 = CC(COCCC(=O)[*:1])(COCCC(=O)[*:2])COCCC(=O)[*:3]; PEG6 = NCCOCCOCCOCCOCCOCCOCCC(=O)O

Experiments:
RSV-B/IZN45 = target: T1, RSV-B/IZN45 (Human respiratory syncytial virus B, UniProt O36634); test: biochemical; format: binding
T1 construct: N-trimer Mimics Synthesized; made in house; host or cells: chemical peptide synthesis
From the text: (§1) IZN45 N-trimer mimic comprises the IZ domain, a highly soluble, designed coiled-coil that helps solubilize the N-trimer, along with the C-terminal (bottom) 45 residues of the RSV N-trimer. IZN45 encompasses the full ordered portion of the N-trimer except for three N-terminal residues (removed to maintain a continuous heptad repeat with the IZ domain). The interactions between 35-residue RSV C-peptides, T108 and T118 (Lambert et al., 1996, Proc. Natl. Acad. Sci. USA 93:2186-2191), and IZN45 was examined by surface plasmon resonance (SPR). SPR is a gold standard assay to measure the kinetics and affinity of biological interactions. […] The Biotinylated L-form of RSV target IZN45 was captured onto one lane of a NeutrAvidin coated SPR chip. A mutant version of IZN45 containing four mutated residues along the N-trimer groove designed to disrupt binding (IZN45 Full Mut, negative control) was captured onto a separate lane of the NeutrAvidin chip. T118, corresponding to the C-terminal portion of the RSV F ectodomain, which is known to interact with the RSV N-trimer groove, was flowed over the various surfaces. […] The surfaces were regenerated with a detergent (0.1% SDS) after each injection of analyte. Various concentrations of T118 were measured in duplicate or triplicate injections. D-peptide interactions with IZN45 and IZN45-Full Mut surfaces were also measured using this method.
(§2) Peptides from the ‘winning’ phage clones from each library were synthesized as D-peptides. If solubility of the peptides was limited, N- or C-terminal charged residue(s) (e.g., lysine) were attached as necessary as previously described for HIV peptides in Eckert et al., 1999, Cell 99:103-15, incorporated by reference in its entirety. Binding affinity and kinetics of the D-peptide inhibitors to the IZN45 and IZN45 mutants was characterized by SPR (Biacore 3000), using methods as described in Welch et al., 2007, Proc. Natl. Acad. Sci. USA 104:16828-33, incorporated by reference in its entirety.

RSV-A/IZN45 = target: T2, RSV-A/IZN45 (Human respiratory syncytial virus A, UniProt P03420); test: SPR binding to RSV-A IZN45 N-trimer mimic
T2 construct: N-trimer Mimics Synthesized; made in house; host or cells: chemical peptide synthesis
From the text: as §1, §2

[1] = synthesized peptide, RSV-B/IZN45, KD determined by SPR
[2] = Kd, synthesized peptide, RSV-A/IZN45, KD determined by SPR
[3] = Kd, subsequent trimer/compound made from peptide, RSV-A/IZN45, SPR

T1 sequence (O36634 163-207, added parts left off): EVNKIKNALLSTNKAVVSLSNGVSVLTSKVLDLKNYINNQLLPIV
T2 sequence (P03420 163-207, added parts left off): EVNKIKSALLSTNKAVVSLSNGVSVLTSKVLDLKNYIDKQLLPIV

Row | Compound | Kd (RSV-B/IZN45; [1]) | Kd (RSV-A/IZN45; [2]) | further results
1 | CSCC[C@@H](NC(=O)[C@@H](CO)NC(=O)CNC(=O)[C@@H](CC(=O)O)NC(=O)[C@@H](CC(=O)O)NC(=O)CCOCCOCCOCCOCCOCCOCCNC(=O)[C@@H](CCCCN)NC(C)=O)C(=O)N[C@@H]1CSSC[C@H](C(=O)NCC(=O)N[C@@H](C(N)=O)[C@H](C)O)NC(=O)[C@@H](Cc2c[nH]c3ccccc23)NC(=O)[C@@H](CC(=O)O)NC(=O)[C@@H](CC(C)C)NC(=O)[C@@H](CC(C)C)NC(=O)[C@@H](Cc2c[nH]c3ccccc23)NC(=O)[C@@H](CCC(=O)O)NC(=O)[C@H]2CCCN2C(=O)[C@@H](CCCNC(=N)N)NC(=O)[C@@H](CC(N)=O)NC(=O)[C@@H](C(C)C)NC1=O [Ac-K(PEG6)DDG-RSVP24] (Ac-[dK][PEG6][dD][dD]G[dS][dM][dC][dV][dN][dR][dP][dE][dW][dL][dL][dD][dW][dC]G[dT]-NH2; disulfide 8-19) | 1800 nM | 2100 nM | 
2 | CC[C@@H](C)[C@@H](N)C(=O)N[C@H](CO)C(=O)N[C@H](CC(C)C)C(=O)N1CCC[C@@H]1C(=O)N[C@@H](C(=O)N1CCC[C@@H]1C(=O)N[C@@H](C(=O)N[C@H](Cc1c[nH]c2ccccc12)C(=O)N[C@H](Cc1c[nH]c2ccccc12)C(=O)N1CCC[C@@H]1C(=O)N[C@H](CO)C(=O)N[C@@H](C(=O)NCC(=O)N[C@H](CCCCN)C(N)=O)[C@H](C)O)[C@H](C)O)[C@H](C)O [X12-45-GK] (H-[dI][dS][dL][dP][dT][dP][dT][dW][dW][dP][dS][dT]G[dK]-NH2) | 6000 nM |  | 
3 | CC[C@@H](C)[C@@H](NC(=O)[C@H](NC(=O)[C@@H](CCCCN)NC(=O)[C@H](N)CO)C(C)C)C(=O)N[C@H](CC(C)C)C(=O)N1CCC[C@@H]1C(=O)N[C@H](CCC(=O)O)C(=O)N1CCC[C@@H]1C(=O)N[C@H](Cc1ccccc1)C(=O)N[C@H](Cc1c[nH]c2ccccc12)C(=O)N[C@H](Cc1c[nH]c2ccccc12)C(=O)N1CCC[C@@H]1C(=O)NCC(=O)NCC(N)=O [X12-47-GG] (H-[dS][dK][dV][dI][dL][dP][dE][dP][dF][dW][dW][dP]GG-NH2) | 17000 nM |  | 
4 | CC[C@@H](C)[C@@H](NC(=O)[C@H](NC(=O)[C@@H](CCCCN)NC(=O)[C@H](N)CO)C(C)C)C(=O)N[C@H](CC(C)C)C(=O)N1CCC[C@@H]1C(=O)N[C@H](CCC(=O)O)C(=O)N1CCC[C@@H]1C(=O)N[C@H](Cc1ccccc1)C(=O)N[C@H](Cc1c[nH]c2ccccc12)C(=O)N[C@H](Cc1c[nH]c2ccccc12)C(=O)N1CCC[C@@H]1C(N)=O [X12-47] (H-[dS][dK][dV][dI][dL][dP][dE][dP][dF][dW][dW][dP]-NH2) | 10000 nM |  | 
5 | CSCC[C@@H](NC(=O)[C@@H](Cc1c[nH]c2ccccc12)NC(=O)[C@@H](Cc1c[nH]c2ccccc12)NC(=O)[C@@H](Cc1ccc(O)cc1)NC(=O)[C@@H](CCCCN)NC(=O)[C@@H](CC(C)C)NC(=O)[C@H](N)CO)C(=O)N[C@H](CCC(=O)O)C(=O)N[C@H](CCC(=O)O)C(=O)N[C@H](CC(C)C)C(=O)N1CCC[C@@H]1C(=O)N[C@H](CC(C)C)C(=O)N1CCC[C@@H]1C(=O)N[C@H](CCCCN)C(=O)N[C@H](Cc1c[nH]c2ccccc12)C(=O)N[C@H](Cc1c[nH]c2ccccc12)C(=O)NCC(=O)NCC(N)=O [X16-18-GG] (H-[dS][dL][dK][dY][dW][dW][dM][dE][dE][dL][dP][dL][dP][dK][dW][dW]GG-NH2) | 24000 nM |  | 
6 | CSCC[C@@H](NC(=O)[C@@H](Cc1c[nH]c2ccccc12)NC(=O)[C@@H](Cc1c[nH]c2ccccc12)NC(=O)[C@@H](Cc1ccc(O)cc1)NC(=O)[C@@H](CCCCN)NC(=O)[C@@H](CC(C)C)NC(=O)[C@H](N)CO)C(=O)N[C@H](CCC(=O)O)C(=O)N[C@H](CCC(=O)O)C(=O)N[C@H](CC(C)C)C(=O)N1CCC[C@@H]1C(=O)N[C@H](CC(C)C)C(=O)N1CCC[C@@H]1C(=O)N[C@H](CCCCN)C(=O)N[C@H](Cc1c[nH]c2ccccc12)C(=O)N[C@H](Cc1c[nH]c2ccccc12)C(N)=O [X16-18] (H-[dS][dL][dK][dY][dW][dW][dM][dE][dE][dL][dP][dL][dP][dK][dW][dW]-NH2) | 16000 nM |  | 
7 | CC[C@@H](C)[C@@H](NC(=O)[C@@H](CC(=O)O)NC(=O)[C@@H](CC(=O)O)NC(=O)[C@@H](Cc1c[nH]c2ccccc12)NC(=O)[C@@H](Cc1c[nH]c2ccccc12)NC(=O)[C@H]1CCCN1C(=O)[C@@H](CCC(N)=O)NC(=O)[C@@H](CC(C)C)NC(=O)[C@H]1CCCN1C(=O)[C@@H](CC(C)C)NC(=O)[C@@H](Cc1c[nH]c2ccccc12)NC(=O)[C@H](N)Cc1c[nH]cn1)C(=O)N1CCC[C@@H]1C(=O)N[C@@H](C(=O)N[C@H](Cc1c[nH]c2ccccc12)C(=O)N[C@H](Cc1c[nH]cn1)C(=O)NCC(=O)N[C@H](CCCCN)C(N)=O)C(C)C [X16-20-GK] (H-[dH][dW][dL][dP][dL][dQ][dP][dW][dW][dD][dD][dI][dP][dV][dW][dH]G[dK]-NH2) | 2000 nM |  | 
8 | I: Ac-[dI][dS][dL][dP][dT][dP][dT][dW][dW][dP][dS][dT]GG[PEG6][dK]-NH2 / II: Ac-[dI][dS][dL][dP][dT][dP][dT][dW][dW][dP][dS][dT]GG[PEG6][dK]-NH2 / III: Ac-[dI][dS][dL][dP][dT][dP][dT][dW][dW][dP][dS][dT]GG[PEG6][dK]-NH2 (linker I:16-II:16-III:16 via X2; C-terminus assumed) [Ac-X12-45-GG(PEG6)K-trimer] |  |  | Kd (RSV-B/IZN45; FIG. 10B, RSV-B version of IZN45): 66 nM; Kd (RSV-A/IZN45; KD, FIG. 10A, RSV-A version of IZN45): 49 nM; Kd (RSV-A/IZN45; [3]): 53 nM
9 | I: Ac-[dK][PEG6]G[dA][dC][dT][dN][dR][dA][dE][dW][dL][dI][dD][dW][dC][dA][dA]-NH2 / II: Ac-[dK][PEG6]G[dA][dC][dT][dN][dR][dA][dE][dW][dL][dI][dD][dW][dC][dA][dA]-NH2 / III: Ac-[dK][PEG6]G[dA][dC][dT][dN][dR][dA][dE][dW][dL][dI][dD][dW][dC][dA][dA]-NH2 (linker I:1-II:1-III:1 via X1; disulfide I:5-I:16, II:5-II:16, III:5-III:16; C-terminus assumed) [Ac-K(PEG6)-RSVP21-trimer] |  |  | Kd (RSV-B/IZN45; subsequent trimer/compound made from peptide, RSV-B/IZN45, SPR): 1.8 nM; Kd (RSV-A/IZN45; [3]): 0.3 nM
10 | I: H-[dK]G[dR][dW][dF][dE][dL][dP][dE][dP][dD][dW][dW]G[PEG6][dK]G[dK]G-NH2 / II: H-[dK]G[dR][dW][dF][dE][dL][dP][dE][dP][dD][dW][dW]G[PEG6] / III: H-[dK]G[dR][dW][dF][dE][dL][dP][dE][dP][dD][dW][dW]G[PEG6] (amide I:16-II:C, I:18-III:C) [KG-RSVP1-G(PEG6)-Tricasso] |  | ~20 nM | 
11 | I: H-[dR][dW][dF][dE][dL][dP][dE][dP][dD][dW][dW]G[dK][PEG6][dK]G[dK]G-NH2 / II: H-[dR][dW][dF][dE][dL][dP][dE][dP][dD][dW][dW]G[dK][PEG6] / III: H-[dR][dW][dF][dE][dL][dP][dE][dP][dD][dW][dW]G[dK][PEG6] (amide I:15-II:C, I:17-III:C) [RSVP1-GK(PEG6)-Tricasso] |  | ~20 nM | 
12 | I: [dK]G[dR][dW][dF][dE][dL][dP][dE][dP][dE][dW][dW]G[PEG6][dK]G[dK]G-NH2 / II: [dK]G[dR][dW][dF][dE][dL][dP][dE][dP][dE][dW][dW]G[PEG6] / III: [dK]G[dR][dW][dF][dE][dL][dP][dE][dP][dE][dW][dW]G[PEG6] (amide I:16-II:C, I:18-III:C) [KG-RSVP7-G(PEG6)-Tricasso] |  | ~20 nM | 
